Measured values reported in patent US12098148B2, “Therapeutic compounds” (C4X Discovery Limited, priority 2018, dated 2024).

Experiments:
[1] = system: NQO1 mRNA in BEAS-2B cells; assay: Beas2B NQO1 mRNA cell based assay; set-up: species or system human; settings: Homo sapiens, BEAS-2B, 24 h, 24 h compound treatment, increase in NQO1 mRNA vs vehicle (0.1% DMSO), read-out: EC50
In short: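 BEAS-2B human bronchial epithelial cells exposed to compound for 24 h at 37 °C, 5% CO2. NQO1 mRNA measured by one-step TaqMan RT-qPCR on unpurified lysates, normalized to β-actin; relative expression by ΔΔCT method.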

[2] = target: human KEAP1 (N-term, residues 321-609) (Homo sapiens, UniProt Q14145); assay: biochemical;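 further: fluorescence polarization competition assay of Kelch domain binding to NRF2, 12-point 1:3 dilution series from 10 µM, read after 1 h at room temperature, floor 10 nM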
human KEAP1 (N-term, residues 321-609), sequence (Q14145 321-609): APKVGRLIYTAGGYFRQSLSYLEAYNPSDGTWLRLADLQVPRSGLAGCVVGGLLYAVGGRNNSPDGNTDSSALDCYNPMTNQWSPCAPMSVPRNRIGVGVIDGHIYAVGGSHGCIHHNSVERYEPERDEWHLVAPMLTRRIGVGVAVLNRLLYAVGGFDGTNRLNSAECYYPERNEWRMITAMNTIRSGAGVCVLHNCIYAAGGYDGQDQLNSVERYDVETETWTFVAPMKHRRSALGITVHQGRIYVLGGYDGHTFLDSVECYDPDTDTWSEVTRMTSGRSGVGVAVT

SMILES	EC50 [1]	IC50 [2]
C[C@]1(C(=O)O)CCCC[C@H]1C(=O)N1CCc2c(Cl)ccc(OC3CCn4cnnc43)c2[C@H]1CN1CC2(CC2)CC1=O (stereo partly drawn) [Example 209, (1S,2R)-2-((1S)-5-chloro-8-((6,7-dihydro-5H-pyrrolo [2,1-c][1,2,4]triazol-7-yl)oxy)-1-((6-oxo-5-azaspiro[2.4]heptan-5-yl)methyl)-1,2,3,4-tetrahydroisoquinoline-2-carbonyl)-1-methylcyclohexane-1-carboxylic acid]	290 nM	8.4 nM
[2H][C@@H]1C[C@@H](C(=O)N2CCc3c(Cl)ccc(OCc4nnn(C)c4C(F)F)c3[C@H]2CN2CC3(CC3)CC2=O)[C@@](C)(C(=O)O)C[C@@H]1[2H] [Example 210, (1S,2R,4S,5R)-2-((S)-5-chloro-8-((5-(difluoromethyl)-1-methyl-1H-1,2,3-triazol-4-yl)methoxy)-1-((6-oxo-5-azaspiro[2.4]heptan-5-yl)methyl)-1,2,3,4-tetrahydroisoquinoline-2-carbonyl)-1-methylcyclohexane-1-carboxylic-4,5-d2 acid]	0.24 nM	5.9 nM
Cn1cccc(COc2ccc(Cl)c3c2[C@@H](CN2CC4(CC4)CC2=O)N(C(=O)[C@@H]2CCCC[C@]2(C)C(=O)O)CC3)c1=O [Example 211, (1S,2R)-2-((S)-5-chloro-8-((1-methyl-2-oxo-1,2-dihydropyridin-3-yl)methoxy)-1-((6-oxo-5-azaspiro[2.4]heptan-5-yl)methyl)-1,2,3,4-tetrahydroisoquinoline-2-carbonyl)-1-methylcyclohexane-1-carboxylic acid]	43 nM	6.8 nM
Cn1c(COc2ccc(Cl)c3c2[C@@H](CN2CC4(CC4)CC2=O)N(C(=O)[C@@H]2CCCC[C@]2(C)C(=O)O)CC3)cccc1=O [Example 214, (1S,2R)-2-((S)-5-chloro-8-((1-methyl-6-oxo-1,6-dihydropyridin-2-yl)methoxy)-1-((6-oxo-5-azaspiro [2.4]heptan-5-yl)methyl)-1,2,3,4-tetrahydroisoquinoline-2-carbonyl)-1-methylcyclohexane-1-carboxylic acid]	41 nM	5.2 nM
Cn1nnc(COc2ccc(Cl)c3c2[C@@H](CN2CC4(CC4)CC2=O)N(C(=O)[C@@H]2CC(F)(F)CC[C@]2(C)C(=O)O)CC3)c1C(F)F [Example 217, (1S,2R)-2-((S)-5-chloro-8-((5-(difluoromethyl)-1-methyl-1H-1,2,3-triazol-4-yl)methoxy)-1-((6-oxo-5-azaspiro[2.4]heptan-5-yl)methyl)-1,2,3,4-tetrahydroisoquinoline-2-carbonyl)-4,4-difluoro-1-methylcyclohexane-1-carboxylic acid]	43 nM	9.8 nM
Cn1nnc(COc2ccc(Cl)c3c2[C@@H](CN2CC4(CC4)CC2=O)N(C(=O)[C@@H]2C[C@@H](F)CC[C@]2(C)C(=O)O)CC3)c1C(F)F [Example 218, (1S,2R,4S)-2-((S)-5-chloro-8-((5-(difluoromethyl)-1-methyl-1H-1,2,3-triazol-4-yl)methoxy)-1-((6-oxo-5-azaspiro[2.4]heptan-5-yl)methyl)-1,2,3,4-tetrahydroisoquinoline-2-carbonyl)-4-fluoro-1-methylcyclohexane-1-carboxylic acid]	0.98 nM	6.8 nM
[2H][C@@H]1CC[C@](C)(C(=O)O)[C@H](C(=O)N2CCc3c(Cl)ccc(OCc4nnn(C)c4C(F)F)c3[C@H]2CN2CC3(CC3)CC2=O)C1 [Example 219, (1S,2R,4R)-2-((S)-5-chloro-8-((5-(difluoromethyl)-1-methyl-1H-1,2,3-triazol-4-yl)methoxy)-1-((6-oxo-5-azaspiro[2.4]heptan-5-yl)methyl)-1,2,3,4-tetrahydroisoquinoline-2-carbonyl)-1-methylcyclohexane-1-carboxylic-4-d acid]	0.18 nM	5.3 nM
